From patent US4461895A, “Dibenzo(de,g)quinolines” (Warner-Lambert Company, priority 1981, dated 1984)

Key:
cats = assay: coughing experiment according to Domenjoz on cats (antitussive effect); type: in vivo
Source text: The new compounds thereby considerably exceed the known antitussive action of 5,6,6a,7-tetrahydro-1,2,9,10-tetramethoxy-5-methyl-4H-dibenzo(de,g)quinoline (glaucine) with regard to the strength and length of activity.
(§1) The following Table summarises some of the animal experimental results obtained: […]

toxicity in mice (LD50) = conditions: mouse, in vivo
Source text: as §1

SMILES | antitussive effect: duration of cough inhibition (cats; 1.0 mg./kg., i.v.) [min] | antitussive effect: duration of cough inhibition (cats; 6.25 mg./kg., id.) [min] | antitussive effect: duration of cough inhibition (cats; 6.25 mg./kg., sc.) [min] | LD50 (toxicity in mice (LD50); iv) [mg/kg] | LD50 (toxicity in mice (LD50); po, ig.) [mg/kg] | LD50 (toxicity in mice (LD50); sc.) [mg/kg] | antitussive effect: duration of cough inhibition (cats; 2.0 mg./kg., i.v.) [min] | antitussive effect: duration of cough inhibition (cats; 4.0 mg./kg., id.) [min] | antitussive effect: cough inhibition (cats; 10.0 mg./kg., sc., result in words)
C=CCN1CCc2cc(OC)c(OC)c3c2C1Cc1cc(OC)c(OC)cc1-3 (single isomer, unassigned; (+)) [Example 1, (+)-6-Allyl-5,6,6a,7-tetrahydro-1,2,9,10-tetramethoxy-4H-dibenzo(de,g)quinoline] | 20 | 90 | 40 | 150 | ~1200 | 150 | – | – | –
COc1cc2c(cc1OC)-c1c(OC)c(OC)cc3c1C(C2)N(C)CC3 (stereo not drawn) [glaucine] | – | – | – | 58.3 | 531 | 20 | 10 | 40 | no cough
